{
  "source": "ChEMBL document CHEMBL1159255",
  "about": "“Cardenolides from Nierembergia aristata” (1995)",
  "key": {"SK-MEL-2": {"system": "SK-MEL-2", "assay": "Cytotoxicity against human SK-MEL-2 cells", "assay_type": "functional", "details": "read-out: ED50 (the source's name)"}, "Lu1": {"system": "Lu1", "assay": "Cytotoxicity against human Lu1 cells", "assay_type": "functional", "details": "read-out: ED50 (the source's name)"}, "HT": {"system": "HT", "assay": "Cytotoxicity against human HT cells", "assay_type": "functional", "details": "read-out: ED50 (the source's name)"}, "[1]": {"assay": "Cytotoxicity against human BC1 cells", "assay_type": "functional", "details": "read-out: ED50 (the source's name)"}, "Col2": {"system": "Col2", "assay": "Cytotoxicity against human Col2 cells", "assay_type": "functional", "details": "read-out: ED50 (the source's name)"}, "KB": {"system": "KB", "assay": "Cytotoxicity against human KB cells", "assay_type": "functional", "details": "read-out: ED50 (the source's name)"}, "[2]": {"assay": "Cytotoxicity against human KBVIN cells in presence of vinblastine", "assay_type": "functional", "details": "read-out: ED50 (the source's name)"}, "[3]": {"assay": "Cytotoxicity against human KBVIN cells in absence of vinblastine", "assay_type": "functional", "details": "read-out: ED50 (the source's name)"}, "A-431": {"system": "A-431", "assay": "Cytotoxicity against human A431 cells", "assay_type": "functional", "details": "read-out: ED50 (the source's name)"}, "LNCaP": {"system": "LNCaP", "assay": "Cytotoxicity against human LNCAP cells", "assay_type": "functional", "details": "read-out: ED50 (the source's name)"}, "ZR-75-1": {"system": "ZR-75-1", "assay": "Cytotoxicity against human ZR-75-1 cells", "assay_type": "functional", "details": "read-out: ED50 (the source's name)"}, "[4]": {"assay": "Cytotoxicity against human U373 cells", "assay_type": "functional, U-373MG ATCC", "details": "U373 MG, read-out: ED50 (the source's name)"}},
  "data": [
    {"smiles": "C[C@H]1O[C@@H](O[C@H]2CC[C@]3(C=O)[C@H]4CC[C@]5(C)[C@@H](C6=CC(=O)OC6)CC[C@]5(O)[C@@H]4C=C[C@]3(O)C2)C[C@H](O)[C@H]1O", "values": [
      {"measurement": "EC50", "setting": "SK-MEL-2", "result": 0.05, "unit": "µg/mL"},
      {"measurement": "EC50", "setting": "Lu1", "result": 0.03, "unit": "µg/mL"},
      {"measurement": "EC50", "setting": "HT", "result": 0.05, "unit": "µg/mL"},
      {"measurement": "EC50", "setting": "[1]", "result": 0.04, "unit": "µg/mL"},
      {"measurement": "EC50", "setting": "Col2", "result": 0.07, "unit": "µg/mL"},
      {"measurement": "EC50", "setting": "KB", "result": 0.04, "unit": "µg/mL"},
      {"measurement": "EC50", "setting": "[2]", "result": 0.05, "unit": "µg/mL"},
      {"measurement": "EC50", "setting": "[3]", "result": 0.06, "unit": "µg/mL"},
      {"measurement": "EC50", "setting": "A-431", "result": 0.09, "unit": "µg/mL"},
      {"measurement": "EC50", "setting": "LNCaP", "result": 0.1, "unit": "µg/mL"},
      {"measurement": "EC50", "setting": "ZR-75-1", "result": 0.08, "unit": "µg/mL"},
      {"measurement": "EC50", "setting": "[4]", "result": 0.09, "unit": "µg/mL"}
    ]},
    {"smiles": "CO[C@@H]1C[C@H](O[C@H]2CC[C@]3(C=O)[C@H]4CC[C@]5(C)[C@@H](C6=CC(=O)OC6)CC[C@]5(O)[C@@H]4C=C[C@]3(O)C2)O[C@H](C)[C@H]1O", "values": [
      {"measurement": "EC50", "setting": "SK-MEL-2", "result": 0.8, "unit": "µg/mL"},
      {"measurement": "EC50", "setting": "Lu1", "result": 0.1, "unit": "µg/mL"},
      {"measurement": "EC50", "setting": "HT", "result": 0.4, "unit": "µg/mL"},
      {"measurement": "EC50", "setting": "[1]", "result": 0.3, "unit": "µg/mL"},
      {"measurement": "EC50", "setting": "Col2", "result": 0.9, "unit": "µg/mL"},
      {"measurement": "EC50", "setting": "KB", "result": 0.3, "unit": "µg/mL"},
      {"measurement": "EC50", "setting": "[2]", "result": 0.3, "unit": "µg/mL"},
      {"measurement": "EC50", "setting": "[3]", "result": 0.5, "unit": "µg/mL"},
      {"measurement": "EC50", "setting": "A-431", "result": 0.7, "unit": "µg/mL"},
      {"measurement": "EC50", "setting": "LNCaP", "result": 0.5, "unit": "µg/mL"},
      {"measurement": "EC50", "setting": "ZR-75-1", "result": 0.2, "unit": "µg/mL"},
      {"measurement": "EC50", "setting": "[4]", "result": 0.8, "unit": "µg/mL"}
    ]},
    {"smiles": "C[C@H]1O[C@@H](O[C@H]2CC[C@]3(C=O)[C@H]4[C@H](O)C[C@]5(C)[C@H](C6=CC(=O)OC6)CC[C@]5(O)[C@@H]4C=C[C@]3(O)C2)C[C@H](O)[C@H]1O", "values": [
      {"measurement": "EC50", "setting": "SK-MEL-2", "result": 4.1, "unit": "µg/mL"},
      {"measurement": "EC50", "setting": "Lu1", "result": 0.09, "unit": "µg/mL"},
      {"measurement": "EC50", "setting": "HT", "result": 2.3, "unit": "µg/mL"},
      {"measurement": "EC50", "setting": "[1]", "result": 0.3, "unit": "µg/mL"},
      {"measurement": "EC50", "setting": "Col2", "result": 0.5, "unit": "µg/mL"},
      {"measurement": "EC50", "setting": "KB", "result": 0.3, "unit": "µg/mL"},
      {"measurement": "EC50", "setting": "[2]", "result": 0.6, "unit": "µg/mL"},
      {"measurement": "EC50", "setting": "[3]", "result": 1.6, "unit": "µg/mL"},
      {"measurement": "EC50", "setting": "A-431", "result": 0.5, "unit": "µg/mL"},
      {"measurement": "EC50", "setting": "LNCaP", "result": 0.3, "unit": "µg/mL"},
      {"measurement": "EC50", "setting": "ZR-75-1", "result": 0.4, "unit": "µg/mL"},
      {"measurement": "EC50", "setting": "[4]", "result": 0.4, "unit": "µg/mL"}
    ]}
  ]
}
